The results in this text go back to ChEMBL document CHEMBL1121517, “Estrogen receptor based imaging agents. 1. Synthesis and receptor binding affinity of some aromatic and D-ring halogenated estrogens” (J Med Chem, 1980).

The target of this test is Estrogen receptor (Ovis aries) (UniProt P49885+Q9TU15).

`CCC(c1ccc(O)c(Br)c1)C(CC)c1cc(Br)c(O)c(Br)c1` (stereo not drawn) registered an RAC of 0.72.
The figure for `C[C@]12CC[C@@H]3c4cc(Br)c(O)cc4CC[C@H]3[C@@H]1CC[C@@H]2O` is 1.2.
With `C[C@]12CC[C@@H]3c4ccc(O)cc4CC[C@H]3[C@@H]1C[C@@H](Cl)[C@H]2O`, the RAC worked out at 9.2.
Next, `C[C@]12CC[C@@H]3c4ccc(O)cc4CC[C@H]3[C@@H]1C[C@H](I)[C@@H]2O`: 57.
The figure for `CCC(c1ccc(O)cc1)C(CC)c1cc(I)c(O)c(I)c1` (stereo not drawn) is 1.9; for `COc1ccc2c(c1)CC[C@@H]1[C@@H]2CC[C@]2(C)C(=O)[C@H](Cl)C[C@@H]12` it is 0.48; for `C[C@]12CC[C@@H]3c4ccc(O)cc4CC[C@H]3[C@@H]1C[C@@H](Br)[C@H]2O` it is 4.8.
`C[C@]12CC[C@@H]3c4ccc(O)cc4CC[C@H]3[C@@H]1C[C@@H](Cl)[C@@H]2O` gave an RAC of 100.
Next, `CCC(c1ccc(O)c(F)c1)C(CC)c1ccc(O)c(F)c1` (stereo not drawn): 64.
With `CCC(c1cc(I)c(O)c(I)c1)C(CC)c1cc(I)c(O)c(I)c1` (stereo not drawn), the RAC was determined as 0.002.
Next, `COc1ccc2c(c1)CC[C@@H]1[C@@H]2CC[C@]2(C)C(=O)[C@@H](Br)C[C@@H]12`: 0.14.
Next, `C[C@]12CC[C@@H]3c4ccc(O)cc4CC[C@H]3[C@@H]1C[C@@H](Br)[C@@H]2O`: 127.
On to `C[C@]12CC[C@@H]3c4ccc(O)c(Br)c4CC[C@H]3[C@@H]1CC[C@@H]2O`, for which the RAC was found to be 10.
Next, `CCC(c1cc(Br)c(O)c(Br)c1)C(CC)c1cc(Br)c(O)c(Br)c1` (stereo not drawn): below 0.17.
Next, `CCC(c1ccc(O)c(Br)c1)C(CC)c1ccc(O)c(Br)c1` (stereo not drawn): 2.6.
The compound `C[C@]12CC[C@@H]3c4cc(I)c(O)cc4CC[C@H]3[C@@H]1CC[C@@H]2O` displayed an RAC below 0.1.
Take `CCC(c1ccc(O)cc1)C(CC)c1ccc(O)c(F)c1` (stereo not drawn): the RAC came to 205.
Take `COc1ccc2c(c1)CC[C@@H]1[C@@H]2CC[C@]2(C)C(=O)CC[C@@H]12`: the RAC worked out at 12.
In turn, `COc1ccc2c(c1)CC[C@@H]1[C@@H]2CC[C@]2(C)C(=O)[C@H](Br)C[C@@H]12` gave an RAC of 3.5.
For the compound `C[C@]12CC[C@@H]3c4cc(F)c(O)cc4CC[C@H]3[C@@H]1CC[C@@H]2O`, the RAC was 86.
Next, `C[C@]12CC[C@@H]3c4ccc(O)c(F)c4CC[C@H]3[C@@H]1CC[C@@H]2O`: 128.
`CCC(c1ccc(O)cc1)C(CC)c1ccc(O)c(I)c1` (stereo not drawn) displayed an RAC of 14.
For `CCC(c1ccc(O)cc1)C(CC)c1ccc(O)c(Br)c1` (stereo not drawn), the RAC worked out at 16.
As for `CCC(c1ccc(O)c(I)c1)C(CC)c1cc(I)c(O)c(I)c1` (stereo not drawn), the RAC stood at 0.14.
In turn, `CC[C@H](c1ccc(O)cc1)[C@@H](CC)c1ccc(O)cc1` returned an RAC of 300.
Compound `CCC(c1ccc(O)c(I)c1)C(CC)c1ccc(O)c(I)c1` (stereo not drawn) had an RAC of 3.2.
For the compound `C[C@]12CC[C@@H]3c4ccc(O)cc4CC[C@H]3[C@@H]1C[C@@H](I)[C@@H]2O`, the RAC stood at 100.
`C[C@]12CC[C@@H]3c4ccc(O)cc4CC[C@H]3[C@@H]1C[C@H](Br)[C@@H]2O` came in with an RAC of 4.7.
